Source: US20240335431A1, “1-H-PYRROLO[2,3-c]PYRIDINE COMPOUNDS” (Acerta Pharma B.V., priority 2023, published 2024)

Columns and labels:
[1] = biological target: Menin protein (Homo sapiens, UniProt O00255, DEL460-519); assay: Menin/MLL fluorescence polarization (FP) assay; format: binding; details: Menin 2 nM, cRho110-Ahx-MBM1/MBM2 peptide 1 nM
Procedure: Compounds were tested in a biochemical binding assay using Menin protein at 2 nM (N6his-tev-Menin_4i80, PB-20-1459) and the substrate cRho110-Ahx-MBM1/MBM2 peptide (UbiQ, UbiQ-Q20201030; cRh110-Ahx-[…]-QRVPALLLPPG-NH2) at 1 nM.
384 Low volume black plates (Corning #4514) were used. 5 μL/well compound or 3% DMSO was added at 10-fold serial dilutions in DMSO from 10 μM. 5 μL/well cRho110-Ahx-MBM1/MBM2 peptide or binding buffer (50 mM Tris pH 7.5, 50 mM NaCl, 1 mM TCEP, 0.01% BGG, 0.01% Brij-35) was added to all wells. 5 μL/well Menin protein or binding buffer (50 mM Tris pH 7.5, 50 mM NaCl, 1 mM TCEP, 0.01% BGG, 0.01% Brij-35) was added to all wells. Plates were read on an EnVision plate reader (Perkin Elmer) with excitation at 480 nm and emission at 535 nm P+S, and measured every 5 minutes for 180 minutes.
Data were analyzed in Genedata Screener®. IC50 values were determined by plotting % inhibition versus log compound concentration and using a one site dose response model. Raw data signals were normalized using 1% DMSO no Menin as 100% inhibitor control and 1% DMSO with Menin and no inhibitor as 0% inhibitor control.

[2] = biological target: hERG (Homo sapiens (Human), UniProt Q12809); assay: hERG assay 2, QPatch II 48X, room temperature; format: cell-based; details: hERG DUO cell line, top 200 μM
Procedure: Experiments were performed on the QPatch II 48X (Sophion Biosciences) high throughput patch clamp platform at room temperature and used single hole Qplates. hERG DUO cell line (BSys) was used. The internal patch clamp solution was KF 60 mM, KCl 70 mM, HEPES 10 mM, EGTA 10 mM, and 5 mM Mg ATP (pH7.2). After sealing and whole cell access was gained the external solution (NaCl 140 mM, KCl 4 mM, HEPES 10 mM, CaCl2 2 mM, MgCl2 1 mM, glucose 5 mM (pH 7.4) was applied twice to establish stable baseline currents. An industry standard +40/−40 mV voltage protocol was applied every 15 seconds. All compounds were tested in a 6-point cumulative assay (final DMSO concentration 0.4-2% depending on stock concentration of compounds). Compounds were dispensed from initial 10 mM or 50 mM DMSO stocks after which DMSO dilutions were undertaken with a top concentration of 200 μM tested. Solvent controls were run in all experiments in line with the DMSO % required. Only wells that passed acceptance criteria for this platform were used in this analysis (500 MegaOhm seal resistance and current size >0.2 nA). Analysis was completed in Prism Graphpad to complete a composite IC50, by plotting % inhibition versus log compound concentration and using a log(inhibitor) vs. response—Variable slope.

[3] = biological target: T1, muscarinic M2 receptor (Homo sapiens (Human), UniProt P08172); assay: Muscarinic M2 receptor binding assay (assay 1); details: [3H]AF-DX 384 2 nM, Cheng Prusoff
Procedure: Cell membrane homogenates (60 μg protein) were incubated for 60 minutes at 22° C. with 2 nM [3H]AF-DX 384 in the absence or presence of the test compound in a buffer containing 50 mM Tris-HCl (pH 7.4), 120 mM NaCl, 5 mM KCl, 5 mM MgCl2, and 1 mM EDTA. Nonspecific binding was determined in the presence of 1 μM atropine. Following incubation, the samples were filtered rapidly under vacuum through glass fiber filters (GF/B, Packard) presoaked with 0.3% PEI and rinsed several times with ice-cold 50 mM Tris-HCl using a 96-sample cell harvester (Unifilter, Packard). The filters were dried then counted for radioactivity in a scintillation counter (Topcount, Packard) using a scintillation cocktail (Microscint 0, Packard). The results were expressed as a percent inhibition of the control radioligand specific binding, from which the Ki was calculated. Data were analyzed using software developed at Cerep (Hill software) and validated by comparison with data generated by the commercial software SigmaPlot®4.0 for Windows® (© 1997 by SPSS Inc.). The inhibition constant, Ki, was calculated using the Cheng Prusoff equation:
where L=concentration of ligand in the assay, and Kd=affinity of the ligand for the receptor. The standard reference compound was methoctramine, which was tested in each experiment at several concentrations to obtain a competition curve from which its IC50 was calculated.

[4] = biological target: T1, muscarinic M2 receptor; assay: Muscarinic M2 receptor functional assay, antagonist effect (assay 2); format: cell-based; details: cAMP, 1 μM acetylcholine
Procedure: Thereafter, the reference agonist acetylcholine and the adenylyl cyclase activator NKH 477 were added at respective final concentrations of 1 μM and 5 μM. For basal control measurements, acetylcholine was omitted from the wells containing 10 μM methoctramine. Following 10 minutes incubation at 37° C., the cells were lysed, and the fluorescence acceptor (D2-labeled cAMP) and fluorescence donor (anti-cAMP antibody labelled with europium cryptate) were added. After 60 minutes at room temperature, the fluorescence transfer was measured at λex=337 nm and λem=620 and 665 nm using a microplate reader (Rubystar, BMG). The cAMP concentration was determined by dividing the signal measured at 665 nm by that measured at 620 nm (ratio). The results were expressed as a percent inhibition of the control response to 1 μM acetylcholine. For test compounds and for standard reference antagonist methoctramine, which is tested in each experiment, assays were run in eight-point concentration response mode and IC50 values determined following non-linear regression curve analysis. Curve analysis was completed using software developed at Cerep (Hill software) and validated by comparison with data generated by the commercial software SigmaPlot®4.0 for Windows® (© 1997 by SPSS Inc.).

T1 sequence (P08172 whole entry): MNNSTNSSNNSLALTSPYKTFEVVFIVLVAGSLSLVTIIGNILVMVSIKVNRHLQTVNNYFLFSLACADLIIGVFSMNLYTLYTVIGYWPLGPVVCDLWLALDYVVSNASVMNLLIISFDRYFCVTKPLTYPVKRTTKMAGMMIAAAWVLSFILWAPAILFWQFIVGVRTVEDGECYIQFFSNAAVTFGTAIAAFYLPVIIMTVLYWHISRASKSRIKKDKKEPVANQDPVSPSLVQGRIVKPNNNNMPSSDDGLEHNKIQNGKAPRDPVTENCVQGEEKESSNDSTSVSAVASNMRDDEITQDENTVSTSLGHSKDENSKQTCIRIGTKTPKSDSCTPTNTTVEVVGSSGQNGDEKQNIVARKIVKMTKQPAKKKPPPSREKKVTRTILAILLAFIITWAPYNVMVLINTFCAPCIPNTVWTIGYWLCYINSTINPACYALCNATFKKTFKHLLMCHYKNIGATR
hERG, sequence (Q12809 whole entry): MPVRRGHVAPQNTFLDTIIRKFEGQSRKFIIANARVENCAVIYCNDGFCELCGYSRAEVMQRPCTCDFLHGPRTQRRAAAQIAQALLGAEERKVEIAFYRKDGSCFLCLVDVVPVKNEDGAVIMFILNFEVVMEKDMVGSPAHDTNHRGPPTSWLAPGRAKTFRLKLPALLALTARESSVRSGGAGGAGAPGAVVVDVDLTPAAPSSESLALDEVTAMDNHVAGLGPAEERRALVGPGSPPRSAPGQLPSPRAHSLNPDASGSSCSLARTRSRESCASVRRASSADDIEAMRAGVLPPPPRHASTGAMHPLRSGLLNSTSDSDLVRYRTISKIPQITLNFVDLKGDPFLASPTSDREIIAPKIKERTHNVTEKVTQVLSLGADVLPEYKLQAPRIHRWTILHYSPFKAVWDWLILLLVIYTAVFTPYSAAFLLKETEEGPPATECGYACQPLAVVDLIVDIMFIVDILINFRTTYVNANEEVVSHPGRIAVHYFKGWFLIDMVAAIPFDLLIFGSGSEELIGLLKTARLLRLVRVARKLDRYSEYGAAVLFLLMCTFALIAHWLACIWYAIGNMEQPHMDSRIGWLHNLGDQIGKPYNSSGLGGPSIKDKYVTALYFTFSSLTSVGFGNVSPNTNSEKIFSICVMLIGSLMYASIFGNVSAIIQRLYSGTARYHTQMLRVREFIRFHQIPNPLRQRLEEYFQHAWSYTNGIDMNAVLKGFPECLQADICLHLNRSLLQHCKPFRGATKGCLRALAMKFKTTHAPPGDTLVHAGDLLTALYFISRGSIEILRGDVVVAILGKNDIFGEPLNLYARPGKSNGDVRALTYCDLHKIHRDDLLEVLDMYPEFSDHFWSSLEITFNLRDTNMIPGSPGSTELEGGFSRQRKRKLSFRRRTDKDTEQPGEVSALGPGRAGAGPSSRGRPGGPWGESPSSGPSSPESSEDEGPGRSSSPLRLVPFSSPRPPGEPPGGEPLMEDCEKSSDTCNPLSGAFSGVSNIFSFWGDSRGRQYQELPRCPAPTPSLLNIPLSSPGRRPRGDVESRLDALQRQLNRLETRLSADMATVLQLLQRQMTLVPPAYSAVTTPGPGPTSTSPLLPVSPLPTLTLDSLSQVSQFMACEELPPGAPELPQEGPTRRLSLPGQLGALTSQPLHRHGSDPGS
Menin protein, sequence (O00255 with tags, fused parts or gaps DEL460-519): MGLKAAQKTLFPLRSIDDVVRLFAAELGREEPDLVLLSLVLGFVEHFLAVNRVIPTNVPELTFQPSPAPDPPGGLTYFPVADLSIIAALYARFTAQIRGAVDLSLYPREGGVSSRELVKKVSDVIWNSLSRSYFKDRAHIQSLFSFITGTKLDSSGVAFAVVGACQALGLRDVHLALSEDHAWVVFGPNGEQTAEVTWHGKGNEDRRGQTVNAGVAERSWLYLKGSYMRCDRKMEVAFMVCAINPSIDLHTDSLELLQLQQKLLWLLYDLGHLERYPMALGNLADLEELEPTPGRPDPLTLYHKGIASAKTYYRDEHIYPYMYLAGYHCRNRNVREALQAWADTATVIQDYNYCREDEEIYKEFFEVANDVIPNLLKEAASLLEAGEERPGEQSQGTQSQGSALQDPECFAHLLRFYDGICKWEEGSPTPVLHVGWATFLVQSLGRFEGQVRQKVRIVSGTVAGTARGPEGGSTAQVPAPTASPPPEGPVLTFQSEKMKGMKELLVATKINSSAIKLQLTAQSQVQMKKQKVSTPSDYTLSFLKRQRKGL

Structure (SMILES) | IC50 [1] [µM] | Ki [3] [µM] | IC50 [4] [µM] | IC50 [2] [µM]
CC(C)N(C(=O)c1cc(F)ccc1-n1cc(C(=O)C2CCN(C(=O)[C@H]3NC[C@@H]4C[C@@H]43)CC2)c2ccncc21)C(C)C [Example 19, 2-(3-(1-((1S,2S,5R)-3-Azabicyclo[3.1.0]hexane-2-carbonyl)piperidine-4-carbonyl)-1H-pyrrolo[2,3-c]pyridin-1-yl)-5-fluoro-N,N-diisopropylbenzamide] | – | 1.4 | 21.3 | 128
CC(C)N(C(=O)c1cc(F)ccc1-n1cc(C(=O)[C@H]2CCN(C(=O)[C@H]3N[C@@H]4CC[C@H]3C4)C2)c2ccncc21)C(C)C [Example 2, 2-(3-((S)-1-((1R,3S,4S)-2-Azabicyclo[2.2.1]heptane-3-carbonyl)pyrrolidine-3-carbonyl)-1H-pyrrolo[2,3-c]pyridin-1-yl)-5-fluoro-N,N-diisopropylbenzamide] | – | 0.8 | 5.2 | > 200
CCN(C(=O)c1cc(F)ccc1-n1c(C)c(C(=O)C2CCN(C(=O)[C@H]3N[C@@H]4CC[C@H]3C4)CC2)c2ccncc21)C(C)C [Example 46, 2-(3-(1-((1R,3S,4S)-2-Azabicyclo[2.2.1]heptane-3-carbonyl)piperidine-4-carbonyl)-2-methyl-1H-pyrrolo[2,3-c]pyridin-1-yl)-N-ethyl-5-fluoro-N-isopropylbenzamide] | – | 7.1 | – | > 200
CCN(C(=O)c1cc(F)ccc1-n1c(C)c(C(=O)C2CCN(C(=O)[C@@H]3CCC4(CC4)N3)CC2)c2ccncc21)C(C)C (single isomer, unassigned) [Example 49-2] | 0.029 | 27.4 | – | –
CCN(C(=O)c1cc(F)ccc1-n1cc(C(=O)C2CCN(C(=O)[C@H]3N[C@@H]4CC[C@H]3C4)CC2)c2ccncc21)C(C)C [Example 31, 2-(3-(1-((1R,3S,4S)-2-Azabicyclo[2.2.1]heptane-3-carbonyl)piperidine-4-carbonyl)-1H-pyrrolo[2,3-c]pyridin-1-yl)-N-ethyl-5-fluoro-N-isopropylbenzamide] | – | 0.1 | – | > 200
CCN(C(=O)c1cc(F)ccc1-n1cc(C(=O)C2CCN(C(=O)[C@H]3NC[C@@H]4C[C@@H]43)CC2)c2ccncc21)C(C)C [Example 28, 2-(3-(1-((1S,2S,5R)-3-Azabicyclo[3.1.0]hexane-2-carbonyl)piperidine-4-carbonyl)-1H-pyrrolo[2,3-c]pyridin-1-yl)-N-ethyl-5-fluoro-N-isopropylbenzamide] | 0.017 | 0.4 | – | > 200
CC(C)c1ncncc1-c1cc(F)ccc1-n1cc(C(=O)C2CCN(C(=O)[C@H]3N[C@@H]4CC[C@H]3C4)CC2)c2ccncc21 [Example 37, (1-((1R,3S,4S)-2-Azabicyclo[2.2.1]heptane-3-carbonyl)piperidin-4-yl)(1-(4-fluoro-2-(4-isopropylpyrimidin-5-yl)phenyl)-1H-pyrrolo[2,3-c]pyridin-3-yl)methanone] | – | 0.3 | – | > 200
CC(C)c1ncccc1-c1cc(F)ccc1-n1cc(C(=O)C2CCN(C(=O)[C@H]3N[C@@H]4CC[C@H]3C4)CC2)c2ccncc21 [Example 38, (1-((1R,3S,4S)-2-Azabicyclo[2.2.1]heptane-3-carbonyl)piperidin-4-yl)(1-(4-fluoro-2-(2-isopropylpyridin-3-yl)phenyl)-1H-pyrrolo[2,3-c]pyridin-3-yl)methanone] | – | 0.3 | – | 26
C[C@@H]1COC[C@@H](C)N1C(=O)c1cc(F)ccc1-n1cc(C(=O)C2CCN(C(=O)[C@H]3N[C@@H]4CC[C@H]3C4)CC2)c2ccncc21 [Example 34, (1-((1R,3S,4S)-2-Azabicyclo[2.2.1]heptane-3-carbonyl)piperidin-4-yl)(1-(2-((3R,5R)-3,5-dimethylmorpholine-4-carbonyl)-4-fluorophenyl)-1H-pyrrolo[2,3-c]pyridin-3-yl)methanone] | 0.029 | – | – | –
CC(C)N(C(=O)c1cc(F)ccc1-n1cc(C(=O)C2CN(C(=O)[C@H]3N[C@H]4C[C@@H]3[C@@H](F)C4)C2)c2ccncc21)C(C)C [Example 7, 5-Fluoro-2-(3-(1-((1S,3S,4S,5S)-5-fluoro-2-azabicyclo[2.2.1]heptane-3-carbonyl)azetidine-3-carbonyl)-1H-pyrrolo[2,3-c]pyridin-1-yl)-N,N-diisopropylbenzamide] | – | 14.4 | – | 150
CC(C)n1nccc1-c1cc(F)ccc1-n1cc(C(=O)C2CCN(C(=O)[C@H]3N[C@@H]4CC[C@H]3C4)CC2)c2ccncc21 [Example 36, (1-((1R,3S,4S)-2-Azabicyclo[2.2.1]heptane-3-carbonyl)piperidin-4-yl)(1-(4-fluoro-2-(1-isopropyl-1H-pyrazol-5-yl)phenyl)-1H-pyrrolo[2,3-c]pyridin-3-yl)methanone] | – | 1.2 | – | 36.5

Further lines, with some results ahead:

IC50 [1] [µM] | Ki [3] [µM] | IC50 [4] [µM] | Structure (SMILES) | IC50 [2] [µM]
0.009 | 51.9 | – | Cc1c(C(=O)C2CCN(C(=O)[C@H]3NC[C@@H]4C[C@@H]43)CC2)c2ccncc2n1-c1ccc(F)cc1C(=O)N(C(C)C)C(C)C (single isomer, unassigned) [Example 55-2] | 82.3
0.029 | 34.3 | – | CCN(C(=O)c1cc(F)ccc1-n1c(C)c(C(=O)C2CCN(C(=O)[C@@H]3CCC(C)(C)N3)CC2)c2ccncc21)C(C)C (single isomer, unassigned) [Example 50-2] | –
0.022 | 30.7 | – | Cc1c(C(=O)C2CCN(C(=O)[C@H]3NC[C@@H]4C[C@@H]43)CC2)c2ccncc2n1-c1ccc(F)cc1C(=O)N(CC(F)(F)F)C(C)C (single isomer, unassigned) [Example 51-2] | > 200
0.014 | 19.8 | – | Cc1c(C(=O)[C@@H]2CCN(C(=O)[C@H]3NC[C@@H]4C[C@@H]43)[C@@H](C)C2)c2ccncc2n1-c1ccc(F)cc1C(=O)N(CC(F)(F)F)C(C)C (single isomer, unassigned) [Example 53-3, 2-(3-((2R*,4S*)-1-((1S,2S,5R)-3-Azabicyclo[3.1.0]hexane-2-carbonyl)-2-methylpiperidine-4-carbonyl)-2-methyl-1H-pyrrolo[2,3-c]pyridin-1-yl)-5-fluoro-N-isopropyl-N-(2,2,2-trifluoroethyl)benzamide] | –
0.013 | 19 | – | CCN(C(=O)c1cc(F)ccc1-n1c(C)c(C(=O)C2CCN(C(=O)[C@H]3NC[C@@H]4C[C@@H]43)CC2)c2ccncc21)C(C)C (single isomer, unassigned) [Example 48-2] | > 200
